The text below walks through data of patent publication US6949648B2, “Condensed pyrazole derivatives, process for producing the same and use thereof” (Takeda Pharmaceutical Company Limited, priority 2000, dated 2005).

Broadly, the melting point is the temperature of the solid-liquid transition.

Compound `CCc1nn(-c2ccccn2)c2nc3cc(F)c(F)cc3c(Cl)c12` [Example 2-200, 4-Chloro-3-ethyl-6,7-difluoro-1-(2-pyridinyl)-1H-pyrazolo[3,4-b]quinoline] came in with a melting point of 160 to 161 °C.
Consider `CCOc1cccc(-n2nc(C)c3c(=O)c4c(C)cccc4[nH]c32)n1` [Example 2-122, 3,5-Dimethyl-1-(6-ethoxy-2-pyridinyl)-1,9-dihydro-4H-pyrazolo[3,4-b]quinolin-4-one], for which the melting point lay within 213 to 215 °C.
The value for `Cc1nn(-c2ccccn2)c2nc3cc(F)c(Cl)cc3c(Cl)c12` [Example 2-98, 4,6-Dichloro-7-fluoro-3-methyl-1-(2-pyridinyl)-1H-pyrazolo[3,4-b]quinoline] was 211 °C; that for `COc1ccc(-c2nn(-c3ccccn3)c3[nH]c4ccccc4c(=O)c23)cc1` [Example 2-185, 3-(4-Methoxyphenyl)-1-(2-pyridinyl)-1,9-dihydro-4H-pyrazolo[3,4-b]quinolin-4-one] was 197 to 199 °C; that for `CCCCc1c2ccccc2nc2c1c(C)nn2-c1ccccn1` [Example 2-104, 4-Butyl-3-methyl-1-(2-pyridinyl)-1H-pyrazolo[3,4-b]quinoline] was 102 to 103 °C.
In the case of `Cc1nn(-c2ccccn2)c2nc3ccccc3c(NC3CC3)c12.Cl` it was 208 to 211 °C.
`Cc1nn(Cc2ccccn2)c2[nH]c3ccccc3c(=O)c12` [Example 2-189, 3-Methyl-1-(2-pyridinylmethyl)-1,9-dihydro-4H-pyrazolo[3,4-b]quinolin-4-one] gave a melting point of 269 to 272 °C.
The compound `Cc1cc(O)c2c(C)nn(-c3ccccn3)c2n1` [Example 1-18, 3,6-Dimethyl-1-(2-pyridinyl)-1H-pyrazolo[3,4-b]pyridin-4-ol] displayed a melting point of 175 to 176 °C.
Turning to `Cc1nn(-c2ccccn2)c2nc3ccc(C(F)(F)F)cc3c(Cl)c12` [Example 2-39, 4-Chloro-3-methyl-1-(2-pyridinyl)-6-(trifluoromethyl)-1H-pyrazolo[3,4-b]quinoline], the melting point was found to be 206 °C.
In turn, `Cc1nn(Cc2ccccn2)c2nc3ccccc3c(Cl)c12` [Example 2-186, 4-Chloro-3-methyl-1-(2-pyridinylmethyl)-1H-pyrazolo[3,4-b]quinoline] came in with a melting point of 113 to 115 °C.
As to `Cc1nn(-c2ccccn2)c2[nH]c3ccc(N)cc3c(=O)c12` [Example 2-55, 6-Amino-3-methyl-1-(2-pyridinyl)-1,9-dihydro-4H-pyrazolo[3,4-b]quinolin-4-one], the melting point was in the range of 260 to 262 °C.
With `Cc1nn(-c2ncccn2)c2[nH]c3ccccc3c(=O)c12` [Example 2-146, 3-Methyl-1-(2-pyrimidinyl)-1,9-dihydro-4H-pyrazolo[3,4-b]quinolin-4-one], the melting point is 263 to 264 °C.
The value for `Cc1nn(Cc2ccccn2)c2nc3ccccc3c(N(C)C)c12` [Example 2-188, N,N-Dimethyl-N-[3-methyl-1-(2-pyridinylmethyl)-1H-pyrazolo[3,4-b]quinolin-4-yl]amine] was 166 to 168 °C; that for `Cc1nn(-c2ccncc2)c2nc3cc(F)c(F)cc3c(Cl)c12` [Example 2-204, 4-Chloro-6,7-difluoro-3-methyl-1-(4-pyridinyl)-1H-pyrazolo[3,4-b]quinoline] was 226 to 228 °C.
In the case of `Cc1cccc(-n2nc(C)c3c(Cl)c4ccccc4nc32)n1` [Example 2-207, 4-Chloro-3-methyl-1-(6-methyl-2-pyridinyl)-1H-pyrazolo[3,4-b]quinoline] it was 154 °C.
The value for `Cc1ccc(-n2nc(C)c3c(N)c4ccccc4nc32)nc1` [Example 2-116, 3-Methyl-1-(5-methyl-2-pyridinyl)-1H-pyrazolo[3,4-b]quinolin-4-ylamine] was 229 to 232 °C.
In the case of `Cc1cccc2[nH]c3c(c(C)nn3-c3ccccn3)c(=O)c12` [Example 2-31, 3,5-Dimethyl-1-(2-pyridinyl)-1,9-dihydro-4H-pyrazolo[3,4-b]quinolin-4-one], the melting point lay within 183 to 186 °C.
In the case of `Cc1nn(-c2ccccn2)c2nc3ccccc3c(CC(C)C)c12` [Example 2-105, 4-Isobutyl-3-methyl-1-(2-pyridinyl)-1H-pyrazolo[3,4-b]quinoline] it was 87 to 88 °C; in that of `Cc1nn(-c2ccc(Cl)cn2)c2[nH]c3ccccc3c(=O)c12` [Example 2-114, 1-(5-Chloro-2-pyridinyl)-3-methyl-1,9-dihydro-4H-pyrazolo[3,4-b]quinolin-4-one], 262 to 263 °C; in that of `Cc1nc2c(c(C)nn2-c2ccccn2)c(O)c1Cc1ccccc1` [Example 1-20, 5-Benzyl-3,6-dimethyl-1-(2-pyridinyl)-1H-pyrazolo[3,4-b]pyridin-4-ol], 181 to 182 °C.
`CCOc1c2ccccc2nc2c1c(C)nn2-c1ccccn1` [Example 2-16, 4-Ethoxy-3-methyl-1-(2-pyridinyl)-1H-pyrazolo[3,4-b]quinoline] returned a melting point of 121 to 123 °C.
Compound `O=C(O)Cc1nn(-c2ccccn2)c2[nH]c3ccccc3c(=O)c12` [Example 2-177, 2-[4-Oxo-1-(2-pyridinyl)-4,9-dihydro-1H-pyrazolo[3,4-b]quinolin-3-yl]acetic acid] registered a melting point of 229 to 231 °C.
The value for `O=c1c2cnn(-c3ccccn3)c2[nH]c2cccc(F)c12` [Example 2-163, 5-Fluoro-1-(2-pyridinyl)-1,9-dihydro-4H-pyrazolo[3,4-b]quinolin-4-one] was 278 to 281 °C; that for `Cc1nn(-c2ccccn2)c2nccc(OCc3ccccc3)c12` [Example 1-32, 4-(Benzyloxy)-3-methyl-1-(2-pyridinyl)-1H-pyrazolo[3,4-b]pyridine] was 108 to 110 °C; that for `CCOc1cccc(-n2nc(C)c3c(=O)c4cccc(C)c4[nH]c32)n1` [Example 2-130, 3,8-Dimethyl-1-(6-ethoxy-2-pyridinyl)-1,9-dihydro-4H-pyrazolo[3,4-b]quinolin-4-one] was 239 to 241 °C.
Turning to `COc1ccc2[nH]c3c(c(C)nn3-c3ccccn3)c(=O)c2c1` [Example 2-43, 6-Methoxy-3-methyl-1-(2-pyridinyl)-1,9-dihydro-4H-pyrazolo[3,4-b]quinolin-4-one], the melting point lay within 227 to 229 °C.
For `Cc1nn(-c2ccccn2)c2[nH]c3cc(N)ccc3c(=O)c12` [Example 2-59, 7-Amino-3-methyl-1-(2-pyridinyl)-1,9-dihydro-4H-pyrazolo[3,4-b]quinolin-4-one], the melting point fell in the range of 284 to 286 °C.
In the case of `O=C(O)c1nn(-c2ccccn2)c2[nH]c3ccccc3c(=O)c12` [Example 2-181, 4-Oxo-1-(2-pyridinyl)-4,9-dihydro-1H-pyrazolo[3,4-b]quinoline-3-carboxylic acid] it was 306 to 309 °C; in that of `Cc1nn(-c2ccccn2)c2[nH]c3ccc(N(C)C)cc3c(=O)c12` [Example 2-56, 6-Dimethylamino-3-methyl-1-(2-pyridinyl)-1,9-dihydro-4H-pyrazolo[3,4-b]quinolin-4-one], 171 to 173 °C.
In the case of `COC(=O)c1ccc2nc3c(c(C)nn3-c3ccccn3)c(Cl)c2c1` [Example 2-63, Methyl 4-chloro-3-methyl-1-(2-pyridinyl)-1H-pyrazolo[3,4-b]quinoline-6-carboxylate] it was 199 to 200 °C.
